Measurements as given in US20220386611A1, “NOVEL HETEROARYL-TRIAZOLE COMPOUNDS AS PESTICIDES” (Bayer Aktiengesellschaft, priority 2019, published 2022).

Columns and labels:
Assay type in all cases: in vivo
[1] = system: Rhipicephalus microplus larvae (strain Parkhurst, resistant against synthetic pyrethroids); assay: Rhipicephalus (Boophilus) microplus in-vitro contact test, larval cattle tick; conditions: 5 μg/cm^2 (=500 g/ha), after 48 hours, read-out: efficacy (larvae dead or moribund)
Experimental: Rhipicephalus (Boophilus) Microplus—In-Vitro Contact Tests Larval Cattle Tick (Strain Parkhurst, Resistant Against Synthetic Pyrethroids)
(§1) 9 mg compound is solved in 1 mL acetone and diluted with acetone to the desired concentration. 250 μL of the test solution is filled in 25 mL glass test tubes and homogeneously distributed on the inner walls by rotation and tilting on a shaking device (2 h at 30 rpm). With a compound concentration of 900 ppm, an inner surface of 44.7 cm^2 and a homogeneous distribution, a dose of 5 μg/cm^2 is achieved.
After the solvent has evaporated, each test tube is filled with 20-50 cattle tick larvae (Rhipicephalus microplus), closed with a perforated lid and incubated in a horizontal position at 85% relative humidity and 27° C. in an incubator. After 48 hours efficacy is determined. The larvae are patted on the ground of the tubes and negative geotactic behaviour is recorded.
An efficacy of 100% means all larvae are dead or moribund; 0% means no larvae are dead or moribund.

[2] = system: adult engorged female ticks (Rhipicephalus microplus); assay: Rhipicephalus (Boophilus) microplus injection test; conditions: 168 h, 4 μg/animal, after 7 days, read-out: efficacy (infertile eggs)
Experimental: Rhipicephalus (Boophilus) microplus—Injection Test
(§2) Solvent: dimethyl sulfoxide
To produce a suitable preparation of active compound, 10 mg of active compound are dissolved in 0.5 mL solvent, and the concentrate is diluted with solvent to the desired concentration.
Five adult engorged female ticks (Rhipicephalus microplus) are injected with 1 μL compound solution into the abdomen. The ticks are transferred into replica plates and incubated in a climate chamber.
After 7 days egg deposition of fertile eggs is monitored. Eggs where fertility is not visible are stored in a climate chamber till hatching after about 42 days. An efficacy of 100% means all eggs are infertile; 0% means all eggs are fertile.

[3] = system: adult unfed cat fleas (Ctenocephalides felis); assay: Ctenocephalides felis oral test; conditions: 48 h
Experimental: Ctenocephalides felis—Oral Test
as §2
To produce a suitable preparation of active compound, 10 mg of active compound are dissolved in 0.5 ml solvent, and the concentrate is diluted with cattle blood to the desired concentration.
Approximately 20 adult unfed cat fleas (Ctenocephalides felis) are placed in flea chambers. The blood chamber, sealed with parafilm on the bottom, are filled with cattle blood supplied with compound solution and placed on the gauze covered top of the flea chamber, so that the fleas are able to suck the blood. The blood chamber is heated to 37° C. whereas the flea chamber is kept at room temperature.
After 2 days mortality in % is determined. 100% means all the fleas have been killed; 0% means none of the fleas have been killed.

[4] = system: adult brown dog ticks (Rhipicephalus sanguineus); assay: Rhipicephalus sanguineus in-vitro contact test with adult brown dog ticks; conditions: 5 μg/cm^2 (=500 g/ha), after 48 hours, read-out: efficacy (ticks dead or moribund)
Experimental: Rhipicephalus sanguineus—In-Vitro Contact Tests with Adult Brown Dog Ticks
as §1
After the solvent has evaporated, each test tube is filled with 5-10 adult brown dog ticks (Rhipicephalus sanguineus), closed with a perforated lid and incubated in a lying position at room temperature and relative humidity. After 48 hours efficacy is determined. The ticks are patted on the ground of the tubes and are incubated on a heating plate at 45-50° C. for at most 5 minutes. Immotile or uncoordinated moving ticks, which are not able to escape the heat by climbing upwards, are marked as dead or moribund.
An efficacy of 100% means all ticks are dead or moribund; 0% means no ticks are dead or moribund.

[5] = system: green peach aphid (Myzus persicae); assay: Myzus persicae oral test; conditions: 120 h
Experimental: Solvent: 100 parts by weight acetone
To produce a suitable preparation of active compound, 1 part by weight of active compound is mixed with the stated amount of solvent, and the concentrate is diluted with water to the desired concentration. 50 μL compound solution is filled in microtiter plates and 150 μL IPL41 insect medium (33%+15% sugar) is added to obtain a total volume of 200 μL per well. Afterwards the plates are sealed with parafilm through which a mixed population of the green peach aphid (Myzus persicae) can suck on the compound preparation.
(§3) After 5 days mortality in % is determined. 100% means all aphids have been killed and 0% means none of the aphids have been killed.

[6] = system: green peach aphid (Myzus persicae); assay: Myzus persicae spray test; conditions: foliar, 120 h, after 5 days, Chinese cabbage leaf disks
Experimental: Myzus persicae—spray test
Solvent: 78.0 parts by weight acetone • 1.5 parts by weight dimethylformamide
(§4) Emulsifier: alkylarylpolyglycol ether
(§5) To produce a suitable preparation of active compound, 1 part by weight of active compound is mixed with the stated amount of solvents and is diluted with water, containing an emulsifier concentration of 1000 ppm, to the desired concentration. Further test concentrations are prepared by dilution with emulsifier containing water.
Chinese cabbage (Brassica pekinensis) leaf disks infected with all instars of the green peach aphid (Myzus persicae), are sprayed with a preparation of the active ingredient of the desired concentration.
as §3

[7] = system: larvae of the southern green stink bug (Nezara viridula); assay: Nezara viridula spray test; conditions: 96 h, after 4 days, barley plants
Experimental: Nezara viridula—Spray Test
Solvent: 78.0 parts by weight of acetone • • 1.5 parts by weight of dimethylformamide
as §4
as §5, with “solvent,” for “solvents”, “and the concentrate” for “and”
Barley plants (Hordeum vulgare) infested with larvae of the southern green stink bug (Nezara viridula) are sprayed with a test solution containing the desired concentration of the active ingredient.
After 4 days mortality in % is determined. 100% means all the stink bugs have been killed; 0% means none of the stink bugs have been killed.

[8] = system: Aedes aegypti strain MONHEIM; assay: Aedes aegypti test (AEDSAE surface treatment & contact assay); conditions: 24 hours after contact, read-out: efficacy (mortality); for mortality at 4 mg/m2: surface concentration 4 mg/m^2, 30 minutes exposure
Experimental: Aedes Aegypti Test (AEDSAE Surface Treatment & Contact Assay)
(§6) Solvent: Aceton+2000 ppm rapeseed oil methyl ester (RME)
(§7) In order to produce a sufficient, active ingredient containing solution it is necessary to solve the test compound in the solvent-mix (acetone at 2 mg/ml/RME 2000 ppm). This solution is pipetted onto a glazed tile and after evaporation of the acetone, adult mosquitoes of the species Aedes aegypti strain MONHEIM are placed onto the dried surface. The exposure time is 30 minutes. Mortality in percent (%) is determined 24 hours after contact of the insects to the treated surface. 100% mortality means that all tested insects are dead, whereas 0% means that no insect died.

[9] = system: Anopheles funestus strain FUMOZ-R; assay: Anopheles funestus test (ANPHFU surface treatment & contact assay); conditions: surface concentration 20 mg/m^2, 30 minutes exposure, 24 hours after contact, read-out: efficacy (mortality)
Experimental: Anopheles funestus Test (ANPHFU Surface Treatment & Contact Assay)
as §6
as §7, with “Anopheles funestus” for “Aedes aegypti”, “FUMOZ-R (Hunt et al., Med. Vet. Entomol. 2005 September; 19(3): 271-275)” for “MONHEIM”

[10] = system: adult cat fleas (Ctenocephalides felis); assay: Ctenocephalides felis in-vitro contact test, adult cat flea; conditions: after 48 hours, read-out: efficacy (fleas dead or moribund)
Experimental: as §1, with “Ctenocephalides felis—In-Vitro Contact Tests Adult Cat Flea 9 mg” for “9 mg”
After the solvent has evaporated, each test tube is filled with 5-10 adult cat fleas (Ctenocephalidesfelis), closed with a perforated lid and incubated in a lying position at room temperature and relative humidity.
After 48 hours efficacy is determined. The fleas are patted on the ground of the tubes and are incubated on a heating plate at 45-50° C. for at most 5 minutes. Immotile or uncoordinated moving fleas, which are not able to escape the heat by climbing upwards, are marked as dead or moribund.
An efficacy of 100% means all fleas are dead or moribund; 0% means no fleas are dead or moribund.

[11] = system: larvae of the banded cucumber beetle (Diabrotica balteata); assay: Diabrotica balteata spray test; conditions: 168 h, 100 g/ha (=32 μg/well), after 7 days, wheat seeds, read-out: efficacy (seedlings grown like untreated, uninfected control)
Experimental: Diabrotica balteata—spray test
Solvent: 78.0 parts by weight of acetone
1.5 parts by weight of dimethylformamide
as §4
as §5, with “solvent,” for “solvents”, “and the concentrate” for “and”
Soaked wheat seeds (Triticum aestivum) are placed in a multiple well plate filled with agar and some water and are incubated for 1 day to germinate (5 seeds per well). The germinated wheat seeds are sprayed with a test solution containing the desired concentration of the active ingredient. Afterwards each unit is infected with 10-20 larvae of the banded cucumber beetle (Diabrotica balteata).
After 7 days efficacy in % is determined. 100% means all the seedlings have grown up like in the untreated, uninfected control; 0% means none of the seedlings have grown.

CC(NC(=O)c1cncc(C(F)(F)F)c1)c1nc(Cl)nn1-c1ncccn1 (stereo not shown) [Example I-007]
pest or weed control at 5 µg/cm2 [1]: 100%
pest or weed control at 0.004 mg [2]: 100%
mortality at 100 ppm [3]: 100%
pest or weed control at 5 µg/cm2, 500 g/ha [4]: 100%
mortality at 4 ppm [5]: 90%
mortality at 100 g/ha [6]: 90%
mortality at 100 g/ha [7]: 90%
mortality at 4 mg/m2 [8]: 80 to 100%
mortality at 20 mg/m2 ([8]; surface concentration 20 mg/m^2, 30 minutes exposure): 80 to 100%
mortality at 20 mg/m2 [9]: 80 to 100%

CC(NC(=O)c1cc(Cl)nc(C(F)(F)F)c1)c1nc(Cl)nn1-c1ncccn1 (stereo not shown) [Example I-008]
pest or weed control at 5 µg/cm2 [1]: 100%
pest or weed control at 0.004 mg [2]: 100%
pest or weed control at 1 µg/cm2, 100 g/ha ([10]; 1 μg/cm^2 (=100 g/ha)): 90%
pest or weed control at 5 µg/cm2, 500 g/ha ([10]; 5 μg/cm^2 (=500 g/ha)): 90%
mortality at 100 ppm [3]: 100%
pest or weed control at 5 µg/cm2, 500 g/ha [4]: 100%
pest or weed control at 32 µg/disc, 100 g/ha [11]: 80%
mortality at 100 g/ha [7]: 100%
mortality at 4 mg/m2 [8]: 80 to 100%
